The source of these data is PubChem BioAssay (NCI).

Where “and” joins values, the source holds several entries; their conditions need not be identical. Identical values can stand only once.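 Results reflect a 48-hour exposure of cells in 96-well plates to compound at five concentrations. Here, GI50 denotes the concentration required for 50% inhibition of growth. TGI denotes the concentration required for complete inhibition of growth.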

Among the test systems are DMS 273 small cell lung; SF-295 CNS; OVCAR-4 ovarian; NCI-H522 lung; HOP-62 NSCLC; M14 melanoma; OVCAR-8 ovarian; SK-MEL-2 melanoma; A498 renal; LXFL 529 NSCLC.
What all share (test): growth of human tumour cells (NCI), 48 h

As for `NC1NC=NC2C1N=CN2C1OC(CO)C2[O][Sn][O]C21` (centres undefined), the GI50 in the test on DMS 273 small cell lung, in the test on SF-295 CNS, in the test on OVCAR-4 ovarian, in the test with NCI-H522 lung, in the test with HOP-62 NSCLC and in the test with M14 melanoma was more than 100 µM throughout. In addition, the GI50 in the test on OVCAR-8 ovarian, with SK-MEL-2 melanoma, in the test with A498 renal and in the test on LXFL 529 NSCLC was more than 100 µM throughout. Also, the TGI with DMS 273 small cell lung, in the test with SF-295 CNS, in the test on OVCAR-4 ovarian, with NCI-H522 lung, with HOP-62 NSCLC and with M14 melanoma was more than 100 µM in each case. The TGI in the test on OVCAR-8 ovarian, in the test with SK-MEL-2 melanoma, in the test on A498 renal and in the test on LXFL 529 NSCLC was more than 100 µM throughout.

As to `CC(=O)OCC1OC(n2c(=S)n(-c3ccc([N+](=O)[O-])cc3)c(=O)c3ccccc32)C(OC(C)=O)C(OC(C)=O)C1OC(C)=O` (centres undefined), the TGI in the test on DMS 273 small cell lung is 57.3 µM; in the test with SF-295 CNS it was > 59.8 µM and 62.3 µM; with OVCAR-4 ovarian it was 60.3 µM and 40.9 µM; with NCI-H522 lung, 45.3 µM and 33.7 µM; in the test with HOP-62 NSCLC, 53.7 µM and 54.7 µM; with M14 melanoma, 48.8 µM and > 100 µM. In addition, the TGI was 63.5 µM and 47.6 µM with OVCAR-8 ovarian; 17.4 µM and 58.8 µM with SK-MEL-2 melanoma; > 76.2 µM and 53.6 µM in the test on A498 renal; 39.9 µM and 50.6 µM with LXFL 529 NSCLC. Further, the GI50 was 16 µM and 30.7 µM in the test with M14 melanoma; 12 µM and 22.5 µM in the test with SK-MEL-2 melanoma; 21.9 µM in the test with A498 renal; 11.3 µM and 17.4 µM with LXFL 529 NSCLC.

For the molecule `CC(C)(CN1C(=O)C(Cl)=C(Cl)C1=O)CN1C(=O)C(Cl)=C(Cl)C1=O`, the TGI came to 26.8 µM in the test on DMS 273 small cell lung; 58.8 µM in the test on SF-295 CNS; 43.4 µM in the test with OVCAR-4 ovarian; 4.91 µM in the test with NCI-H522 lung; 45.6 µM in the test on HOP-62 NSCLC; 38.2 µM with M14 melanoma. Moreover, the TGI with OVCAR-8 ovarian is 14.7 µM; with SK-MEL-2 melanoma, 41 µM; in the test on A498 renal, more than 59 µM; with LXFL 529 NSCLC, 19.7 µM.
